The record followed here is paper PMC11355573, “A New Renieramycin T Right-Half Analog as a Small Molecule Degrader of STAT3” (Marine Drugs, 2024).

Experiment [1] relates to ZO1, Slug, Snail, N-cadherin, Vimentin mRNA in H460 cells. In words: mRNA of EMT markers by Real-time qPCR. It counts as cell-based, human. Particulars: H460, 1 μM and 2.5 µM. As to the method:
Therefore, the effect of DH_31 on targeting, the DNA-binding domain of STAT3, may represent an impact on downstream targets at the transcriptional level (Figure 8A). The expression levels of ZO1, Slug, Snail, N-cadherin, and Vimentin were analyzed using Real-time qPCR.
Quantitative Real-time PCR was performed to determine the effect of DH_31 on mRNA levels of STAT3 and EMT-related genes. H460 cells (4.0 × 10^5 cells per well) were seeded in 6-well plates. Following overnight incubation, the cells were treated with different concentrations of DH_31 (0–2.5 μM)) for 8 h at 37 °C. After treatment, total RNA was isolated using the RNeasy kit (Qiagen, Germany) and subsequently subjected to cDNA synthesis using qScript cDNA Supermix (Quanta bio, Beverly, MA, USA), following the manufacturers’ protocols. Real-time qPCR was performed using Luna Universal qPCR Master Mix (NEB, Ipswich, MA, USA) and the CFX 96 Real-time PCR system (Bio-Rad, Hercules, CA, USA). The expression of each cDNA was normalized to that of β-actin, and the comparative Ct method was used to obtain relative expression levels. The primers used for Real-time PCR are shown in the in the Supporting Information, Table S1. The list of primers.
A general note: Real-time PCR tracks product formation cycle by cycle.

Another experiment concerns the target T1, STAT3–ubiquitin complex (Homo sapiens, UniProt P40763).
T1 construct: endogenous in cells; host or cells: NCI-H460 (ATCC HTB-177)
Kind of experiment: Immunoprecipitation and Western blot of STAT3–ubiquitin complex. The format is cell-based. Particulars: H460, 2.5 µM, 6 h, MG132 10 µM pretreatment, vs untreated cells. On the procedure: (§1) To explore whether the reduction in total STAT3 protein after DH_31 treatments (as shown in Figure 5B–E) occurs at the mRNA or protein levels, we first investigated mRNA levels using Real-time qPCR. […] To evaluate whether DH_31 affects STAT3 stability, pretreatment with MG132, a potent selective proteasome inhibitor, was performed. H460 cells were pretreated with or without MG132 (10 μM) for 1 h and then cells were either treated with DH_31 for 6 h or left untreated. […] The proteasome can recognize and degrade protein targets that are conjugated by single or poly-ubiquitin molecules. To investigate the ubiquitination level of STAT3 with DH_31 treatments, the ubiquitination level was evaluated using immunoprecipitation and Western blot analysis of the STAT3–ubiquitin complex in the lung cancer cells treated with DH_31 and in untreated cells.
Immunoprecipitation assay was performed to investigate ubiquitin–proteasomal degradation, shedding light on the regulatory mechanisms involved. H460 cells (4.0 × 10^5 cells per well) were seeded in 6-well plates. Following overnight incubation, the cells were pretreated with 10 μM of a proteasome inhibitor, MG132, for 1 h to prevent proteasomal degradation, and then were treated with different concentrations of DH_31 (0–2.5 μM) for 6 h. After treatment, the cells were lysed as described above. […]

A further experiment has as its system detached H460 cells. Kind of experiment: Anoikis assay (viability under detachment, MTT). The format is cell-based, human. Particulars: H460, 1 and 2.5 μM, at 12 h (p < 0.01) and 24 h (p < 0.001). On the procedure:
Anoikis, a detachment-induced apoptosis, is a mechanism to prevent metastasis, so resistance to anoikis enhances the potential of metastasis. To confirm that DH_31 induces anoikis, the detached H460 cells were treated with 1 and 2.5 μM of DH_31 for 6, 12, and 24 h.
MTT assay was conducted to ascertain cell viability after treatment with DH-31 under detachment conditions. H292 and H460 cells (5.0 × 10^3 cells per well) were seeded in ultra-low attachment 96-well plates and treated with different concentrations of DH_31 (0–2.5 μM) at 37 °C. At 0, 6, 12, and 24 h of incubation, the cell suspensions were transferred onto regular cell culture plates in growth medium to facilitate attachment. After 3 h, images of cells that survived anoikis and recovered their adherent growth ability were captured with a 10 × objective using an inverted microscope (Olympus IX51 with DP70; OlympusbAmerica Inc., Center valley, PA, USA). Then, the medium in each well was removed and replaced with 100 µL of MTT solution. Cell viability was assessed using MTT assay, following the manufacturers’ protocols. Anoikis resistance was calculated as a percentage compared with the control.

The next experiment addresses T2, STAT3 (Homo sapiens, UniProt P40763).
T2 construct: endogenous in cells; host or cells: NCI-H460 (ATCC HTB-177)
In words: STAT3 proteasomal degradation, Western blot with or without MG132. It counts as cell-based. Particulars: H460, 1 and 2.5 µM, 6 h, without MG132 (p < 0.05). On the procedure: as §1
Immunoprecipitation assay was performed to investigate ubiquitin–proteasomal degradation, shedding light on the regulatory mechanisms involved. H460 cells (4.0 × 10^5 cells per well) were seeded in 6-well plates. Following overnight incubation, the cells were pretreated with 10 μM of a proteasome inhibitor, MG132, for 1 h to prevent proteasomal degradation, and then were treated with different concentrations of DH_31 (0–2.5 μM) for 6 h. After treatment, the cells were lysed as described above. Immunoprecipitation was carried out using the Dynabeads™ Protein G Immunoprecipitation kit, following the manufacturers’ protocols. The magnetic beads were coated with the rabbit anti-STAT3, then incubated with whole-cell lysate and mixed gently overnight at 4 °C. After washing, the supernatant containing the antibody–antigen complex was used to perform Western blot analysis to detect the ubiquitinated STAT3 protein.
For orientation: Immunoblotting shows a protein as a band on a membrane.

T1 sequence (P40763 2-770 limits assumed, one chain of several): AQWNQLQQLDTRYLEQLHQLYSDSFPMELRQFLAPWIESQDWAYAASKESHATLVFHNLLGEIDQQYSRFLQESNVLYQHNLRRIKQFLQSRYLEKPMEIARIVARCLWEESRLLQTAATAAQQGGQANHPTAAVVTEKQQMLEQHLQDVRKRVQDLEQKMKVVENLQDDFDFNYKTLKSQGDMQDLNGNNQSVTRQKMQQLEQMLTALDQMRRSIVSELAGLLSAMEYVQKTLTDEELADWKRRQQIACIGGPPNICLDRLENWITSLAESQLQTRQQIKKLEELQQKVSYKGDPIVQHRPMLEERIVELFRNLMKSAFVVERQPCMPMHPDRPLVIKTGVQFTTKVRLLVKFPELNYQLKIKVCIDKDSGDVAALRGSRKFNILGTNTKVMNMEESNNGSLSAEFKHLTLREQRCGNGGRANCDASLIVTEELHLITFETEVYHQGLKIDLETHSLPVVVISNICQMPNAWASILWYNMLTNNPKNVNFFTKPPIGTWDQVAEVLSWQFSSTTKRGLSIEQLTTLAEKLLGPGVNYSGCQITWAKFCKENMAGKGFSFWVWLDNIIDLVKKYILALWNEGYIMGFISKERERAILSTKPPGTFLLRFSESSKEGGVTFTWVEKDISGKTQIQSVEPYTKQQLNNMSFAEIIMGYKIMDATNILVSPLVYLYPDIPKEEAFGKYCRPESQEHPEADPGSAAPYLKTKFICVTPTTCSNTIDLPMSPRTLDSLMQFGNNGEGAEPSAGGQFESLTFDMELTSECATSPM
T2 sequence (P40763 whole entry): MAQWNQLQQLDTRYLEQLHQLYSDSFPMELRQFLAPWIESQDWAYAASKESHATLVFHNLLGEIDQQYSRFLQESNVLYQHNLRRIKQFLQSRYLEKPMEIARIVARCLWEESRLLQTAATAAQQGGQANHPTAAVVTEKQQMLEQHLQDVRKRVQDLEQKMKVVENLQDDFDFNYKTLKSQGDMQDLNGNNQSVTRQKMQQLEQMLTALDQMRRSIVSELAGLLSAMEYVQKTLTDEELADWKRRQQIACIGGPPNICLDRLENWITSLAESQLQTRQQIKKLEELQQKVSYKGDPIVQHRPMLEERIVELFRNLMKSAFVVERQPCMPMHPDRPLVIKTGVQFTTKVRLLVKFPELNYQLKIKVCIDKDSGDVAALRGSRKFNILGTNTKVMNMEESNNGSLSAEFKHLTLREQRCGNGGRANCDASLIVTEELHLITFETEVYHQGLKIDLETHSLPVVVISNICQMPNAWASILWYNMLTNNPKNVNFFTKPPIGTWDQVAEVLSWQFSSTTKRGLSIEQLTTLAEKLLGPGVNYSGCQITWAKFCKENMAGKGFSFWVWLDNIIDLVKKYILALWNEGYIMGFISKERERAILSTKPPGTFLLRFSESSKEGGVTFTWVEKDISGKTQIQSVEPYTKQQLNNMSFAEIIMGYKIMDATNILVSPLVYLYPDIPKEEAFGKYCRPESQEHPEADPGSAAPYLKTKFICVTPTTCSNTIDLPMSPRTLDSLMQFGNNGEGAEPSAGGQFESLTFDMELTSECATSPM

In the case of `COc1c(C)cc2c(c1O)[C@@H]1CN(Cc3ccc4ccccc4c3)[C@@H](C#N)[C@H](C2)N1C` [DH_31, (1R,4R,5S)-10-hydroxy-9-methoxy-8,11-dimethyl-3-(naphthalen-2-ylmethyl)-1,2,3,4,5,6-hexahydro-1,5-epiminobenzo[d]azocine-4-carbonitrile], in experiment [1] (8 h (p < 0.01)), the “ZO1 mRNA expression” value is listed as “significant increase”. Further, in experiment [1] (8 h (p < 0.05)), the “N-cadherin mRNA expression” value is “significant reduction”, the “Slug mRNA expression” value was “significant reduction”, the “Snail mRNA expression” value is “significant reduction” and the “Vimentin mRNA expression” value is reported as “significant reduction”. Besides, the “STAT3–ubiquitin formation” value at STAT3–ubiquitin complex was “significantly enhanced”. Further, the “cell viability of detached cells (anoikis)” value with detached H460 cells was “significant decrease”. Moreover, at STAT3, the “STAT3 protein levels (Western blot)” value is recorded as “significantly reduced”.
